Laboratory results published in article PMC4019466, “RNA Mimicry by the Fap7 Adenylate Kinase in Ribosome Biogenesis” (PLoS Biology, 2014).

Key:
yFap7 [1] = molecular target: T1, yFap7 (Saccharomyces cerevisiae, UniProt Q12055); assay: native gel electrophoresis with radiolabelled ATP; type: binding; conditions: 30 µM yFap7, 0.1 mM [γ-32P]ATP, AMP-PNP 0.1 or 1 mM
T1 construct: gene FAP7; full-length, His-tagged, pRSF-DUET, expressed in E. coli Rosetta 2DE3; calculated monomer mass 23,916 (SAXS sample)
T1 sequence (Q12055 1-197): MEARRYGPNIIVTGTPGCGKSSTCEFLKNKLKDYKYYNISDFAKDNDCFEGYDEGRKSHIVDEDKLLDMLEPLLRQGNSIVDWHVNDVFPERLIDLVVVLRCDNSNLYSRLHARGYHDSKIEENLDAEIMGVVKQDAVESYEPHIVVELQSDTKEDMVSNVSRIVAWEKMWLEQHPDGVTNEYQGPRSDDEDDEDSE

yFap7 [2] = molecular target: T1, yFap7; assay: adenylate kinase assay coupled to pyruvate kinase / lactate dehydrogenase, NADH at […] nm; type: biochemical; conditions: 5 mM MgCl2, pH 7.5, 30 °C; co-substrate ATP
yFap7–yRps14 complex = molecular target: T2, yFap7–yRps14 complex (Saccharomyces cerevisiae, UniProt Q12055); assay: as above; type: biochemical; conditions: 0.3 mM AMP, 5 mM MgCl2, pH 7.5, 30 °C; preformed complex
T2 construct: gene FAP7; co-expressed from polycistronic pET21, N-terminal 6xHis on Fap7, E. coli Rosetta 2DE3; 1:1 complex, calculated mass 38,447; with Small ribosomal subunit protein uS11 (40S ribosomal protein S14)

aFap7–aRps14 complex [3] = molecular target: T3, aFap7–aRps14 complex (Pyrococcus abyssi, UniProt Q9UZK4); assay: X-ray crystal structure, […] Å; conditions: Mg2+; ATP binding pocket of aFap7; pH 8.5, 18 °C; two of four aFap7 copies hold ATP, two ADP
T3 construct: gene PYRAB11420; co-expressed from polycistronic pET21, N-terminal 6xHis on Fap7, E. coli Rosetta 2DE3; 1:1 complex, calculated mass 36,272; with Small ribosomal subunit protein uS11 (30S ribosomal protein S11)

aFap7–aRps14 complex [4] = molecular target: T3, aFap7–aRps14 complex; assay: X-ray crystal structure, […] Å; conditions: Mg2+; ATP binding pocket of aFap7; pH 8.5, 18 °C
purified protein = substrate: Nc1ncnc2c1ncn2[C@@H]1O[C@H](COP(=O)(O)OP(=O)(O)OP(=O)(O)O)[C@@H](O)[C@H]1O; assay: purified protein; type: biochemical, Saccharomyces cerevisiae; conditions: 0.3 mM AMP, 5 mM MgCl2, 60 mM KCl, 100 mM Tris-HCl pH 7.5, 30 °C, ATP 0.01–1 mM
MBP-yRps14 [5] = molecular target: T4, MBP-yRps14 (Saccharomyces cerevisiae, UniProt P06367 1-137); assay: filter binding; 300 mM KCl, 5 mM Mg2+, HEPES pH 8.0; Filter binding: 30 mM Tris-HCl pH 8.0, 150 mM KCl, 6 mM MgCl2, 60 ug/ml E. coli tRNA, 20 C, 15 min, 10 fmol RNA (Fig S4D: 20 mM HEPES pH 8.0, 300 mM KCl, 5 mM MgCl2, 20 C); pull-down: IP buffer (300 mM KCl, 50 mM Hepes pH 7.5, 0.5 mM EDTA, 1 mM DTT, 10% glycerol as given for bead preparation), 5 mM MgCl2 where stated; conditions: protein: recombinant; tags: MBP (pETM41; His-tag purification); (radioactively labeled); hairpin
yFap7 [6] = molecular target: T5, yFap7 (Saccharomyces cerevisiae, UniProt Q12055 1-197); assay: filter binding; up to 3.6 uM protein; 6 mM Mg2+, 150 mM KCl; Filter binding: 30 mM Tris-HCl pH 8.0, 150 mM KCl, 6 mM MgCl2, 60 ug/ml E. coli tRNA, 20 C, 15 min, 10 fmol RNA (Fig S4D: 20 mM HEPES pH 8.0, 300 mM KCl, 5 mM MgCl2, 20 C); pull-down: IP buffer (300 mM KCl, 50 mM Hepes pH 7.5, 0.5 mM EDTA, 1 mM DTT, 10% glycerol as given for bead preparation), 5 mM MgCl2 where stated; conditions: protein: recombinant; tags: His; (radioactively labeled); hairpin
T5 sequence: T1 sequence (Q12055 1-197)

MBP-yRps14 [7] = molecular target: T4, MBP-yRps14; assay: filter binding; 6 mM Mg2+, 150 mM KCl, E. coli tRNA 60 ug/ml; Filter binding: 30 mM Tris-HCl pH 8.0, 150 mM KCl, 6 mM MgCl2, 60 ug/ml E. coli tRNA, 20 C, 15 min, 10 fmol RNA (Fig S4D: 20 mM HEPES pH 8.0, 300 mM KCl, 5 mM MgCl2, 20 C); pull-down: IP buffer (300 mM KCl, 50 mM Hepes pH 7.5, 0.5 mM EDTA, 1 mM DTT, 10% glycerol as given for bead preparation), 5 mM MgCl2 where stated; conditions: protein: recombinant; tags: MBP (pETM41; His-tag purification); (radioactively labeled); hairpin

With Nc1ncnc2c1ncn2[C@@H]1O[C@H](COP(=O)(O)OP(=O)(O)NP(=O)(O)O)[C@@H](O)[C@H]1O [AMPPNP] the “native gel electrophoresis with radiolabelled ATP” value (yFap7 [1]) was “Fap7 binds AMPPNP and ATP−Mg with the same (AMPPNP) or a slightly lower”.

In the case of Nc1ncnc2c1ncn2[C@@H]1O[C@H](COP(=O)(O)O)[C@@H](O)[C@H]1O [AMP], the “adenylate kinase assay coupled to pyruvate kinase / lactate dehydrogenase, NADH” value (yFap7 [2]) is reported as “the AK activity of yFap7 with respect to AMP”.

Nc1ncnc2c1ncn2[C@@H]1O[C@H](COP(=O)(O)OP(=O)(O)OP(=O)(O)O)[C@@H](O)[C@H]1O [ATP] was tested, and the “adenylate kinase assay coupled to pyruvate kinase / lactate dehydrogenase, NADH” value (yFap7–yRps14 complex) was “yFap7–yRps14 complex showed almost complete inhibition of the Fap7 AK activity” and the “X-ray crystal structure, 2.45 Å” value (aFap7–aRps14 complex [3]) was “In the ATP-bound crystal form, two copies of aFap7 are bound by ATP”.

With Nc1ncnc2c1ncn2[C@@H]1O[C@H](COP(=O)(O)OP(=O)(O)O)[C@@H](O)[C@H]1O [ADP] the “X-ray crystal structure, 2.12 Å” value (aFap7–aRps14 complex [4]) was 4cwn and 4cw7 for the ADP- and ATP-bound structures.

B1: yFap7 (Saccharomyces cerevisiae S288C) (protein)
chain: T1 sequence (Q12055 1-197)
notes: full-length, His-tagged, pRSF-DUET, expressed in E. coli Rosetta 2DE3; calculated monomer mass 23,916 (SAXS sample)
For B1, the Km (purified protein) was 52 µM and the kcat (purified protein) was 0.00612 s⁻¹.

B2: Helix 23 of 18S rRNA (H23) (structured_RNA)
RNA: GGGAGUAUUCAAUUGUCAGAGGUGAAAUUCUUGGAUUUAUUGAAGAGU
For B2, the Kd (MBP-yRps14 [5]) was 34.9 ± 0.95 µM, the binding result (yFap7 [6]) was “no binding” and the Kd (MBP-yRps14 [7]) was 1.5 ± 0.15 µM.
